Test results from paper PMC6437697 (Journal of Medicinal Chemistry, 2019).

Tests used:
Test in all cases: KINOMEscan
Type in all cases: binding
Conditions in all cases: read-out: % control activity remaining
ADCK3 = target: T1, ADCK3 (Homo sapiens, UniProt Q8NI60)
T1 construct: purchased Eurofins DiscoverX KINOMEscan

BRSK1 = target: T2, BRSK1 (Homo sapiens, UniProt Q8TDC3)
T2 construct: purchased Eurofins DiscoverX KINOMEscan
T2 sequence (Q8TDC3 1-778): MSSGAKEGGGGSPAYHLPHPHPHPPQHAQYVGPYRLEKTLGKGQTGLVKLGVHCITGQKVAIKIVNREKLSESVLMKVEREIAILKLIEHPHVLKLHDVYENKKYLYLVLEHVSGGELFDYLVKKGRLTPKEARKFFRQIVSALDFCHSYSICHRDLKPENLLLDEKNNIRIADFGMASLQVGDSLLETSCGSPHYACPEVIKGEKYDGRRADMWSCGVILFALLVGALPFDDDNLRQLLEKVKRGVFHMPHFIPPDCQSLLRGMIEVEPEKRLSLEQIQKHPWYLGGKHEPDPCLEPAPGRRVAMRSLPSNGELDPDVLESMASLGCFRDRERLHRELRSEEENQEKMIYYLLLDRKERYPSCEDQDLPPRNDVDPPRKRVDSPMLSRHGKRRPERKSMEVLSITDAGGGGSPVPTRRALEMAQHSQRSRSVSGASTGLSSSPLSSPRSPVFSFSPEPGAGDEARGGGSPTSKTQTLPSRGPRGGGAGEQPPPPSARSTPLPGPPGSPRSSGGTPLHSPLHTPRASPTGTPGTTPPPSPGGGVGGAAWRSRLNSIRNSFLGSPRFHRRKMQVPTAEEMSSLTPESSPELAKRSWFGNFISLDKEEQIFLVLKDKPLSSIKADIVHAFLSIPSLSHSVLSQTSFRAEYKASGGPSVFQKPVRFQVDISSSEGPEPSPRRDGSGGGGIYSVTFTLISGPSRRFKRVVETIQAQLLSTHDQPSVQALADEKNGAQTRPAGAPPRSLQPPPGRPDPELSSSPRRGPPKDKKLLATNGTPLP

CSNK1D = target: T3, CSNK1D (Homo sapiens, UniProt P48730)
T3 construct: purchased Eurofins DiscoverX KINOMEscan

EPHA6 = target: T4, EPHA6 (Homo sapiens, UniProt Q9UF33)
T4 construct: purchased Eurofins DiscoverX KINOMEscan
T4 sequence (Q9UF33 23-1036): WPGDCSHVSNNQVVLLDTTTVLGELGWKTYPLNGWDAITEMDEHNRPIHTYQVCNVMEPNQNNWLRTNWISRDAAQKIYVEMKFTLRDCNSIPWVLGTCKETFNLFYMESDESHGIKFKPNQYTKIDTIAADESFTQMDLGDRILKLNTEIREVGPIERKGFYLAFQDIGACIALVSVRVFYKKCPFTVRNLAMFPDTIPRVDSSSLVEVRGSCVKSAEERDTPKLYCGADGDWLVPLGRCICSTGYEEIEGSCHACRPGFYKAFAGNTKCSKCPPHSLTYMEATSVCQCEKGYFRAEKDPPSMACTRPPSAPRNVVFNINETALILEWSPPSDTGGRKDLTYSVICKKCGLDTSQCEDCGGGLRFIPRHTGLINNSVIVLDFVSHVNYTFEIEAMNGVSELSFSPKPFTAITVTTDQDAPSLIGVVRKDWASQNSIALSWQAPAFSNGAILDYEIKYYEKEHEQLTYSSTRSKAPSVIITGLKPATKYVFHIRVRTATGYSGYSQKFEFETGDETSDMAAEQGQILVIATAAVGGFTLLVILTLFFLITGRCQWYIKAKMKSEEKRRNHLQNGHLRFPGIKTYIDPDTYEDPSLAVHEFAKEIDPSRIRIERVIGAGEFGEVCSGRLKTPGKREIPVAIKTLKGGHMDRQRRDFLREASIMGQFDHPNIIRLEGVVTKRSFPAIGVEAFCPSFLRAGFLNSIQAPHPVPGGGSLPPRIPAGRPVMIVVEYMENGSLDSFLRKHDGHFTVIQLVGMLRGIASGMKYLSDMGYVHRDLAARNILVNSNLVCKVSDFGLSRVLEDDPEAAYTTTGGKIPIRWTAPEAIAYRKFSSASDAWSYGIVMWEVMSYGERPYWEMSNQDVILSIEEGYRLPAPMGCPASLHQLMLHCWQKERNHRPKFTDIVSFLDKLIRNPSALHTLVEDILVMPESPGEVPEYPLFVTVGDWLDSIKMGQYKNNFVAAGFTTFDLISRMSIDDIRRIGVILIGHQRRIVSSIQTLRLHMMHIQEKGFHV

FLT1 = target: T5, FLT1 (Homo sapiens, UniProt P17948)
T5 construct: purchased Eurofins DiscoverX KINOMEscan

[1] = target: T6, JAK1(JH2domain-pseudokinase) (Homo sapiens, UniProt P23458)
T6 construct: JAK1(JH2domain-pseudokinase); purchased Eurofins DiscoverX KINOMEscan

PLK2 = target: T7, PLK2 (Homo sapiens, UniProt Q9NYY3)
T7 construct: purchased Eurofins DiscoverX KINOMEscan

SGK3 = target: T8, SGK3 (Homo sapiens, UniProt Q96BR1)
T8 construct: purchased Eurofins DiscoverX KINOMEscan
T8 sequence (Q96BR1 1-496): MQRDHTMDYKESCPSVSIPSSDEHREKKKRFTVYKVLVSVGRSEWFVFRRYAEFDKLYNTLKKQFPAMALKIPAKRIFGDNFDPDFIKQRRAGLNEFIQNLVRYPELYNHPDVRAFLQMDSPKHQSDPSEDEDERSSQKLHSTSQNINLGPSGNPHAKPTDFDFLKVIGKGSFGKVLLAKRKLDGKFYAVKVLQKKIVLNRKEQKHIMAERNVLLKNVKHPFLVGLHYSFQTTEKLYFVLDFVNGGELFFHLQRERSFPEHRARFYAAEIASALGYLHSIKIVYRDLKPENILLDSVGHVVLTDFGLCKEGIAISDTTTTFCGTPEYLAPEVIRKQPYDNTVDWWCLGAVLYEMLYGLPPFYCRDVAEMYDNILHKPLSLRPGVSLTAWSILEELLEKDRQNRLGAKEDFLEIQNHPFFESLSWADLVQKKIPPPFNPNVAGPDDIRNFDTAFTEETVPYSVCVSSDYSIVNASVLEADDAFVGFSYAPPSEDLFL

WNK3 = target: T9, WNK3 (Homo sapiens, UniProt Q9BYP7)
T9 construct: purchased Eurofins DiscoverX KINOMEscan
T9 sequence (Q9BYP7 whole entry): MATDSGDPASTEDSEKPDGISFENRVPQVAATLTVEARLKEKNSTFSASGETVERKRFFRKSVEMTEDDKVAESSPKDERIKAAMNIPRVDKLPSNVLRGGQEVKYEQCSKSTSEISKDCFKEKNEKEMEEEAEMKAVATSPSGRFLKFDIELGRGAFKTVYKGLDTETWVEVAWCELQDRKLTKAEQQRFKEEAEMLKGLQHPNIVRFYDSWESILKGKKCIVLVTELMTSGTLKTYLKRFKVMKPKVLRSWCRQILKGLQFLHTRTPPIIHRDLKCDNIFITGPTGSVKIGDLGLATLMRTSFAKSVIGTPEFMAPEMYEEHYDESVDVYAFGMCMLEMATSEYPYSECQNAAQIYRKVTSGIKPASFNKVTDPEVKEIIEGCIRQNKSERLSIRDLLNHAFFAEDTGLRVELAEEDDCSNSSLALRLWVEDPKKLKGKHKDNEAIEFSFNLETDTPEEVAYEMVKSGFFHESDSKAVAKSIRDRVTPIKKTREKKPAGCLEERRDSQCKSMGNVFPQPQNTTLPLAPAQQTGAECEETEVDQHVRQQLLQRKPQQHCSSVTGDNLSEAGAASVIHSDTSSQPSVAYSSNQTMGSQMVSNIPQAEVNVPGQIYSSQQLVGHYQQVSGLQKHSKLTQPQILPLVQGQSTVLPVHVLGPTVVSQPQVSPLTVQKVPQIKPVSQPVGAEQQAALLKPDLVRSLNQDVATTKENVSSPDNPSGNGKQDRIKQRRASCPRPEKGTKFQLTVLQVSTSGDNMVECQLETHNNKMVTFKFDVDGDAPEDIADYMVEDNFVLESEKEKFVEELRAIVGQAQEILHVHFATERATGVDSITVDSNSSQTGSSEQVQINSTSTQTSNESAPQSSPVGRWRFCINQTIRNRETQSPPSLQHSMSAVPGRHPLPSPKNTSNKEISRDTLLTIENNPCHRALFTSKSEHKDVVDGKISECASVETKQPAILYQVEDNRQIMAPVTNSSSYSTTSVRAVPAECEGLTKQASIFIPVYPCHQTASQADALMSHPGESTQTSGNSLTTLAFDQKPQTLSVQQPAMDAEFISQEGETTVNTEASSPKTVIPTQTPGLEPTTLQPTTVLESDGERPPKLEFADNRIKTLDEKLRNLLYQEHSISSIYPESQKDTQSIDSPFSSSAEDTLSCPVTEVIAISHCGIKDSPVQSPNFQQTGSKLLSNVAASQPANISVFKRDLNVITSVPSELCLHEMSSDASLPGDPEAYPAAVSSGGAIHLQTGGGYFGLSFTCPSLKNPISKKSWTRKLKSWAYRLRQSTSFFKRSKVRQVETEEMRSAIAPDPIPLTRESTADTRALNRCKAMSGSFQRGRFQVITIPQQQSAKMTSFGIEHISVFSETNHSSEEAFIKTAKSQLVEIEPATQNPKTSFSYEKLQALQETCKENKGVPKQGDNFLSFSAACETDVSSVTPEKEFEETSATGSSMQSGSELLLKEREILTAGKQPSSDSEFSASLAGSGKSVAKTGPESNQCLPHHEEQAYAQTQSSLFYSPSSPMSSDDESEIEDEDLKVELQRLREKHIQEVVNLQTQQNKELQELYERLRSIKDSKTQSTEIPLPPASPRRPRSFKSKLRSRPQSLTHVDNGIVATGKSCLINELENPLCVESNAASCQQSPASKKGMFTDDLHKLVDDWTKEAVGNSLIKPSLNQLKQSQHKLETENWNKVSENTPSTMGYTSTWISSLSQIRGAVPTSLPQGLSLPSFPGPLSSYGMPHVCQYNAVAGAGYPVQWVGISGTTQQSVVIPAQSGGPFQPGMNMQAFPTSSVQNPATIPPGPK

T5 sequence (P17948 27-1338): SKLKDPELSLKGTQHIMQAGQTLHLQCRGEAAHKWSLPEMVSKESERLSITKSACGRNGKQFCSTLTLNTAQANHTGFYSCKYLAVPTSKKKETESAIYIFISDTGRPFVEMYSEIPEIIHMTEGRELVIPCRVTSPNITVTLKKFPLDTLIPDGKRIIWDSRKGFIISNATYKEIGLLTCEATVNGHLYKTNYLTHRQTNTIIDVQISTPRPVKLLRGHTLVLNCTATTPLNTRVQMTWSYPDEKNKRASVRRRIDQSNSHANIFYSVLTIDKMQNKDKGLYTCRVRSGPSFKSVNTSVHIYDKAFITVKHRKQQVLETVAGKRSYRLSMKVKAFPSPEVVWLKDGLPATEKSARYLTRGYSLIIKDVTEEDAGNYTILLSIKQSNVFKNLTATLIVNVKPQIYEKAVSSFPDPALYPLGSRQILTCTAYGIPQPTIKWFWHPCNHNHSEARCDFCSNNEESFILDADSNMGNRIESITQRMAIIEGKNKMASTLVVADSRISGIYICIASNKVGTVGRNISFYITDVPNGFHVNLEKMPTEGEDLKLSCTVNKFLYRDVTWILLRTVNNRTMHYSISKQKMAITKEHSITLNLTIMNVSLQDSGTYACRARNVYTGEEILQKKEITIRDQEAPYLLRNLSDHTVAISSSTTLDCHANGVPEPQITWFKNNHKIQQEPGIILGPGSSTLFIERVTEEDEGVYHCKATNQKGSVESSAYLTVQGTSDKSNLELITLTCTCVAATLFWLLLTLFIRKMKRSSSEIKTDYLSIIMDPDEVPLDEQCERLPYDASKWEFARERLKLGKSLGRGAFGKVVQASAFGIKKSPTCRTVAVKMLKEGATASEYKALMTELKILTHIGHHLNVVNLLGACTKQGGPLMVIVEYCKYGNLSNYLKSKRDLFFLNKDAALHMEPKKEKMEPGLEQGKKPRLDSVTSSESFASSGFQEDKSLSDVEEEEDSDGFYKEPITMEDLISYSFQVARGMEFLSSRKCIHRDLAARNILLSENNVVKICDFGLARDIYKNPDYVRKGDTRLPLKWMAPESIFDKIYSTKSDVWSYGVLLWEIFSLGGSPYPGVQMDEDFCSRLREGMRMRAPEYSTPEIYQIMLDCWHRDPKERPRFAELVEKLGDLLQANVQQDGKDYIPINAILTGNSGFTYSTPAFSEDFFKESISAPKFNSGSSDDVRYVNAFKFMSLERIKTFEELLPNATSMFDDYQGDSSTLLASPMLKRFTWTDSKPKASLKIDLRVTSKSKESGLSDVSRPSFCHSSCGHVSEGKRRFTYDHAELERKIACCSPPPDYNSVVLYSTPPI
T1 sequence (Q8NI60 163-647): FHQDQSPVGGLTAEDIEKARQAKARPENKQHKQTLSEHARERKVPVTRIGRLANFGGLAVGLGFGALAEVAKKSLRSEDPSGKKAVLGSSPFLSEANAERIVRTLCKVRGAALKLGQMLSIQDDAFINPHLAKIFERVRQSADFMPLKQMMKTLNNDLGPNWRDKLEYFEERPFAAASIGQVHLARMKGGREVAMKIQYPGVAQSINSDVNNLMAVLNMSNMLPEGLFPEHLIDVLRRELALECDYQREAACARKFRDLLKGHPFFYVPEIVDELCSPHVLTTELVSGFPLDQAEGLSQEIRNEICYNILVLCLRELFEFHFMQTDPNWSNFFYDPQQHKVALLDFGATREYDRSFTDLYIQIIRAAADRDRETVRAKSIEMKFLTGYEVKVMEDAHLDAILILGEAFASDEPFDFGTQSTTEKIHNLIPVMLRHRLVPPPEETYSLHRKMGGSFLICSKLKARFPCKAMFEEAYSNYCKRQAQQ
T7 sequence (Q9NYY3 whole entry): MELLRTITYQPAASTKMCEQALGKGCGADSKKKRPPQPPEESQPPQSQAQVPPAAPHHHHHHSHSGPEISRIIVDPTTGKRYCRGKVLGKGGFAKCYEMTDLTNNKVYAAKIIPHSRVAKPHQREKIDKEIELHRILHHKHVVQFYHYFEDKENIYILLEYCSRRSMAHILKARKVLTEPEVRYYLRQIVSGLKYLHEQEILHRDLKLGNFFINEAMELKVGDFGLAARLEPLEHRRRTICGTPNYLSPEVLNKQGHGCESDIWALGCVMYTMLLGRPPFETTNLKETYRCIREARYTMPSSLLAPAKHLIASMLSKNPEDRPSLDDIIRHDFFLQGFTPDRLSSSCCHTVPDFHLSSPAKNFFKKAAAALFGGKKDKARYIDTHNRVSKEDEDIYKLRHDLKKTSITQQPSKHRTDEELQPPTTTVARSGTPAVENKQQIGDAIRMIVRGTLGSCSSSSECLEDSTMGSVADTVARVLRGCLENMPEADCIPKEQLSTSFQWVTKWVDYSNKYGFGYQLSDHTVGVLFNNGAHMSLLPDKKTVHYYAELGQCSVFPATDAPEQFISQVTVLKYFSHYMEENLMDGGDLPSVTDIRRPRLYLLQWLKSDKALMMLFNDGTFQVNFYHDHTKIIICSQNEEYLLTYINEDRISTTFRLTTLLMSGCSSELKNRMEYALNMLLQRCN
T6 sequence (P23458 583-855 limits assumed): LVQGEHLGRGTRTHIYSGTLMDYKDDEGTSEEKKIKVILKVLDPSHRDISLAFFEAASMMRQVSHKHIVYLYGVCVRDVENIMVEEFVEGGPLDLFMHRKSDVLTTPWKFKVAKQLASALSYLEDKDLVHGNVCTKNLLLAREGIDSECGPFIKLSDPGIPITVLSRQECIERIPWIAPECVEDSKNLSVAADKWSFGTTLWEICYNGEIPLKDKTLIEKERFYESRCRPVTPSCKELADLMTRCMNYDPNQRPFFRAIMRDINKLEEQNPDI
T3 sequence (P48730 whole entry): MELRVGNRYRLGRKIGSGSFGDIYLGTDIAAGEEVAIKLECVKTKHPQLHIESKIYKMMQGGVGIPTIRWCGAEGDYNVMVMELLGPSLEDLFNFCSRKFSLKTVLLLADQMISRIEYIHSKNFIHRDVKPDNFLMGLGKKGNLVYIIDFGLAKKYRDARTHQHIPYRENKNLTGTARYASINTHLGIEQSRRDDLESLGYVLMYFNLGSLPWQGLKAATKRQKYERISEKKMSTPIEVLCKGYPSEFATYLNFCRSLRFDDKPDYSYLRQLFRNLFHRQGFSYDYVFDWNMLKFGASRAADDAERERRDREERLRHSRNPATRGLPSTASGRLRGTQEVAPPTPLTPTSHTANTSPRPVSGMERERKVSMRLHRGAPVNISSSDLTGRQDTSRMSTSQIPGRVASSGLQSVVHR

## Clc1cc(NCC2CC2)c2ncc(-c3ccc4[nH]ncc4c3)n2n1 [compound 2, 6-Chloro-N-(cyclopropylmethyl)-3-(1H-indazol-5-yl)imidazo[1,2-b]pyridazin-8-amine]
ADCK3
  remaining binding at 1 µM: 79%
BRSK1
  remaining binding at 1 µM: 96%
CSNK1D
  remaining binding at 1 µM: 64%
EPHA6
  remaining binding at 1 µM: 79%
FLT1
  remaining binding at 1 µM: 90%
[1]
  remaining binding at 1 µM: 93%
PLK2
  remaining binding at 1 µM: 66%
SGK3
  remaining binding at 1 µM: 91%
WNK3
  remaining binding at 1 µM: 96%

## O=C(CN1CCOCC1)N[C@H]1CC[C@H](Nc2cc(Cl)nn3c(-c4ccc5[nH]ncc5c4)cnc23)CC1 [compound 26]
ADCK3
  remaining binding at 1 µM: 88%
BRSK1
  remaining binding at 1 µM: 86%
CSNK1D
  remaining binding at 1 µM: 61%
EPHA6
  remaining binding at 1 µM: 93%
FLT1
  remaining binding at 1 µM: 11%
[1]
  remaining binding at 1 µM: 100%
PLK2
  remaining binding at 1 µM: 100%
SGK3
  remaining binding at 1 µM: 65%
WNK3
  remaining binding at 1 µM: 100%

## CN1CCC(CNc2cc(Cl)nn3c(-c4cc5nc(Nc6ccccc6)[nH]c5cc4F)cnc23)CC1 [compound 31, 6-Chloro-3-(6-fluoro-2-(phenylamino)-1H-benzo[d]imidazol-5-yl)-N-((1-methylpiperidin-4-yl)methyl)imidazo[1,2-b]pyridazin-8-amine]
ADCK3
  remaining binding at 1 µM: 85%
BRSK1
  remaining binding at 1 µM: 100%
CSNK1D
  remaining binding at 1 µM: 100%
EPHA6
  remaining binding at 1 µM: 82%
FLT1
  remaining binding at 1 µM: 45%
[1]
  remaining binding at 1 µM: 82%
PLK2
  remaining binding at 1 µM: 90%
SGK3
  remaining binding at 1 µM: 93%
WNK3
  remaining binding at 1 µM: 82%
